From ChEMBL document CHEMBL3085693, “Discovery of a potent inhibitor of replication protein a protein-protein interactions using a fragment-linking approach” (J Med Chem, 2013)
One block for each molecule: values may come before it.

Tests used:
[1] = molecular target: T1, Replication protein A 70 kDa DNA-binding subunit (Homo sapiens, UniProt P27694); assay: Binding affinity to RPA70N (1 to 120) site2 (unknown origin) expressed in Escherichia coli BL21-DE3 cells by NMR spectroscopy
[2] = molecular target: T1, Replication protein A 70 kDa DNA-binding subunit; assay: Binding affinity to RPA70N (1 to 120) site1 (unknown origin) expressed in Escherichia coli BL21-DE3 cells by NMR spectroscopy
[3] = molecular target: T1, Replication protein A 70 kDa DNA-binding subunit; assay: Binding affinity to RPA70N (1 to 120) (unknown origin) expressed in Escherichia coli BL21-DE3 cells by FPA assay
[4] = molecular target: T1, Replication protein A 70 kDa DNA-binding subunit; assay: Binding affinity to RPA70N (1 to 120) (unknown origin) expressed in Escherichia coli BL21-DE3 cells by NMR spectroscopy
[5] = molecular target: T1, Replication protein A 70 kDa DNA-binding subunit; assay: Binding affinity to RPA70NAB (unknown origin) by FPA assay
[6] = molecular target: T1, Replication protein A 70 kDa DNA-binding subunit; assay: Displacement of FITC-ss-DNA from RPA70AB domain (unknown origin) by FPA assay
[7] = molecular target: T1, Replication protein A 70 kDa DNA-binding subunit; assay: Displacement of FITC-ATRIP2 from RPA70NAB domain (unknown origin) by FPA assay
[8] = molecular target: T1, Replication protein A 70 kDa DNA-binding subunit; assay: Displacement of FITC-ss-DNA from RPA70NAB domain (unknown origin) by FPA assay
[9] = molecular target: T1, Replication protein A 70 kDa DNA-binding subunit; assay: Displacement of FITC-ATRIP2 from RPA70N (1 to 120) (unknown origin) by FPA assay

T1 sequence (P27694 whole entry): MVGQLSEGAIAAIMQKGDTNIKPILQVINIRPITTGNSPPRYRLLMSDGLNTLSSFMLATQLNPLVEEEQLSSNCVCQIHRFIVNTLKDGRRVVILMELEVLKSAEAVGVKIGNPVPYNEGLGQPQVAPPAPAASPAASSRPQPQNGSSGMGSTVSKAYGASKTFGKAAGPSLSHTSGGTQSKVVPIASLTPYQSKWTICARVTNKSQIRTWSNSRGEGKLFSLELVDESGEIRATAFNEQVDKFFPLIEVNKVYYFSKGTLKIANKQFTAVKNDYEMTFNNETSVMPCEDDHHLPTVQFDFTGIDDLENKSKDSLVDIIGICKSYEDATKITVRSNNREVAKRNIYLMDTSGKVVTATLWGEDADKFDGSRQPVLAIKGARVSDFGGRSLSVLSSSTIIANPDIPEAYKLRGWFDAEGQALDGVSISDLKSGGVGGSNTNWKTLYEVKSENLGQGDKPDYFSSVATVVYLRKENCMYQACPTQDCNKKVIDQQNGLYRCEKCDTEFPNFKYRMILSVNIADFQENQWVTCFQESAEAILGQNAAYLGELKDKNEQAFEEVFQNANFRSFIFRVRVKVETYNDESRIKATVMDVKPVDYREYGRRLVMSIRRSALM

Compound: O=C(O)c1ccc(-c2ccc(F)c(Cl)c2)o1
Kd [2]: 710 µM
Kd [1]: 1400 µM

Compound: CCc1c(O)[nH]c2nc3ccccc3n2c1=O
Kd [1]: 1620 µM

Compound: Cc1cccc(-n2nc(C(=O)O)cc2-c2ccc(OCc3ccc(-c4ccc(C(=O)O)o4)cc3)cc2)c1
Kd [3]: 20 µM
Kd [4]: 26 µM

Compound: O=C(O)c1cc(-c2ccc(CNC(=S)c3ccc(-c4ccc(C(=O)O)o4)cc3Cl)cc2)n(-c2ccc(Cl)c(Cl)c2)n1
Kd [3]: 0.19 µM
Kd [5]: 0.29 µM
Kd [6]: 5.2 µM
Kd [7]: 0.323 µM
Kd [8]: 2.3 µM
Kd [9]: 0.19 µM

Compound: O=C(O)c1cc(-c2ccc(CNC(=O)c3ccc(-c4ccc(C(=O)O)o4)cc3Cl)cc2)n(-c2ccc(Cl)c(Cl)c2)n1
Kd [4]: 2.9 µM

Further lines, results first:

Kd [1]: 1120 µM
Compound: O=C(O)c1cc(-c2ccc(F)cc2)n[nH]1

Kd [2]: 640 µM
Compound: Cc1cccc2c(-c3ccccc3)c(C(=O)O)[nH]c12

Kd [2]: 580 µM
Kd [1]: > 2000 µM
Compound: Cc1cccc(-n2nc(C(=O)O)cc2-c2ccccc2)c1
